The source of these data is article PMC3990405 (Journal of controlled release : official journal of the …, 2013).

Broadly, the AUC is the area under the concentration-time curve, a measure of exposure. High values mean more exposure, low ones less exposure. By Tmax is commonly meant the time from dosing to the highest level. By IC50 is commonly meant the concentration at which inhibition is half-maximal. Low values mean greater potency, high ones weaker potency.

For data set [1], the system named is phosphorylated NF-κB p65. The data set is described as follows: TNF-induced NF-κB p65 phosphorylation in U937 monocytes. Type of data set: cell-based, human.
In data set [2] the test system is L929 cells. The data set is described as follows: L929 cell proliferation / cytotoxicity without TNFα. Type of data set: cell-based, murine. As to conditions: curcumin in DMSO; not shown.
Data set [3] can be described thus: Plasma pharmacokinetics after i.m. injection proximal to the sciatic nerve. Type of data set: in vivo, C57BL/6 mice.
Data set [4] concerns TNFα-induced cytotoxicity in L929 fibrosarcoma cells. The data set is described as follows: L929 cytoprotection assay against TNFα. Type of data set: cell-based, murine.
The format of data set [5] is in vivo, C57BL/6 mice.
Setting [6] is: female, C57BL/6, mouse, plasma, im, 40 μl of 6 mM.

Structures are written as SMILES. Like-named read-outs stand apart in the source and are kept apart here.

As for `COc1cc(/C=C/C(=O)CC(=O)/C=C/c2ccc(O)c(OC)c2)ccc1O` [curcumin], the “attenuation of TNF-induced increases in NF-kB phosphorylation” value in data set [1] (high (5 μM) and low (0.5 μM) doses, 50 ng/ml TNFα 10 min) is “able to attenuate TNF-induced increases in NF-kB phosphorylation in a dose-dependent manner”. Also, in data set [1] (high (5 μM) and low (0.5 μM) doses, no TNFα), the “effect on basal NF-kB phosphorylation” value is given as “no statistically significant effect”. The “attenuation of TNF-induced monocyte NF-κB activation” value in data set [1] (high micromolar dose (5 μM), 2 h pre-incubation, 50 ng/ml TNFα 10 min) is “equally attenuated”. In data set [2], the “dose with some cytotoxic effects” value is listed as “above 30 μM”. Besides, the area under the curve (AUC) in data set [3] (setting [6]) was 0.87 ± 0.13 µM·h. The Tmax in data set [3] (setting [6]) was in the range of 1 to 2 h. For the same compound, the “time window with plasma curcumin significantly above naïve plasma” value in data set [3] (mouse, i.m., one-way ANOVA p < 0.0001) is 0.5 to 4 h. The same compound returned an IC50 in data set [4] (Mus musculus, L929, 24 h) of 13.5 µM. For the same compound, the “Hill slope, k” value in data set [4] (logistic fit, Equation 1) was 1.472. Further, the “Mass of curcumin in injection-site tissue” value in data set [5] (0 h, maximum recoverable, injected after sacrifice, n = 1) amounted to 158 nmol; in data set [5] (2 h, mean ± SEM), 98 ± 24 nmol; in data set [5] (48 h, mean ± SEM), 0.67 ± 0.004 nmol; in data set [5] (96 h, mean ± SEM), 0.39 ± 0.12 nmol. The “%ID (nmol/nmol) at injection site” value was 59 %ID in data set [5] (0 h, maximum recoverable, n = 1); 36 ± 8.9 %ID in data set [5] (2 h, mean ± SEM); 0.25 ± 0.002 %ID in data set [5] (48 h, mean ± SEM); 0.14 ± 0.04 %ID in data set [5] (96 h, mean ± SEM).
